The structures appear in SMILES notation. “And” between values parts separate entries of the source, which are not always exact repeats. Identical values can stand only once.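 In this assay, cells in 96-well plates receive the compound at five concentrations for 48 hours. Endpoints are linearly interpolated between the surrounding concentrations. GI50 = concentration required for 50% inhibition of growth. TGI is the concentration that stops growth completely.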

GI50 and TGI data for 17 compounds are collected here from PubChem BioAssay (NCI).

What all share (assay): NCI anticancer screen, dose series, 48 h
In assay [1] the test system is SN12C renal.
Assay [2] concerns SK-MEL-28 melanoma.
Assay [3] has as its system K-562 leukemia.
Assay [4] concerns MCF7 breast.
The subject of assay [5] is CCRF-CEM leukemia.
Assay [6] deals with NCI-H23 lung.
Assay [7] has as its system LOX IMVI melanoma.
Assay [8] has as its system COLO 205 colon.
Assay [9] relates to PC-3 prostate.
Assay [10] deals with 786-0 renal.

Take `O=C1NC(N/N=C\C(O)C(O)C(O)C(O)CO)=N/C1=C/c1ccccc1` (configuration not stated): the GI50 in assay [1] is 75.4 µM and 15.5 µM and > 100 µM; in assay [2], 37.3 µM and 24 µM and > 100 µM; in assay [3], 67.6 µM and 33.8 µM and 28.8 µM; in assay [4], 40.3 µM and 13.5 µM and > 61.4 µM; in [5], 37.1 µM and 10.2 µM and 37.7 µM; in [6] it was > 100 µM and 19.3 µM. Further, the GI50 in [7] was > 100 µM and 17.7 µM; in assay [8], > 100 µM and 19.3 µM; in assay [9] it was 47.5 µM and 14.5 µM and > 100 µM; in [10], 57.5 µM and 19.3 µM and > 100 µM. Besides, the TGI in assay [1] was > 100 µM and 36.3 µM; in assay [2], over 100 µM; in assay [3] it was over 100 µM; in assay [4], > 100 µM and 30.7 µM; in assay [5] it was > 100 µM and 97.7 µM and > 57.7 µM; in assay [6], > 100 µM and 36.5 µM. Also, the TGI in [7] is > 100 µM and 36.4 µM; in assay [8], > 100 µM and 41.6 µM; in [9] it was > 100 µM and 28 µM; in [10], > 100 µM and 41.3 µM.
Turning to `CCC(=O)N1C/C(=C/c2ccc(Cl)cc2)C(=O)/C(=C/c2ccc(Cl)cc2)C1`, the GI50 in [1] is 0.711 µM; in assay [2], 1.71 µM; in [3], 0.317 µM; in assay [4], 0.324 µM; in assay [5] it was 0.422 µM; in [6], 1.44 µM. For the same compound, the GI50 in assay [7] is 0.161 µM; in [8] it was 0.757 µM; in assay [9], 0.464 µM; in assay [10], 0.332 µM. The TGI in assay [1] is 2.05 µM; in [2], 3.33 µM; in [4] it was 1.36 µM; in [5], over 22.3 µM; in [6], 3.74 µM; in [7], 0.354 µM. Further, the values for the TGI in [8], in [9] and in assay [10] were 1.95 µM, 2.4 µM and 1.22 µM, respectively.
For `O=S(=O)(O)O`, the TGI came out at 1450 µM in assay [1]; 1700 µM in [2]; 1230 µM in assay [3]; 1410 µM in assay [4]; 684 µM in [5]; 1580 µM in [6]. Also, the TGI in [7] stood at 542 µM; in [8], 2210 µM; in assay [9] it was 1190 µM; in [10], 1490 µM.
For the compound `O=[N+]([O-])c1cccc(/C=N/NC2=CS(=O)(=O)C=C2)c1`, the TGI in assay [1], in [2], in [3], in [4], in assay [5] and in assay [6] was over 100 µM in each case. The TGI in [7], in assay [8], in assay [9] and in assay [10] was over 100 µM throughout.
As to `CO/N=C(\COc1ccc2c(=O)c3ccccc3oc2c1)c1ccccc1`, the GI50 in [1] was 35.1 µM; in assay [2], over 100 µM; in assay [3] it was 72.1 µM; in assay [4], 37.9 µM; in assay [5], over 100 µM; in [6], over 100 µM. Further, the GI50 is 35.9 µM in [7], over 100 µM in assay [8], 35 µM in assay [9] and 25.4 µM in assay [10]. Moreover, the TGI in assay [1], in assay [2], in assay [3], in [4], in assay [5] and in assay [6] was over 100 µM in each case. For the same compound, the TGI in assay [7] is over 100 µM; in assay [8], over 100 µM; in assay [9], over 100 µM; in [10], 72.5 µM.
`COc1ccc(C(=O)Cn2c(C(=O)c3ccccc3)nc3ccccc32)cc1`: the GI50 is over 27.7 µM in assay [1]; 3.91 µM in [2]; 0.54 µM in assay [3]; 1.35 µM in [4]; 2.87 µM in [5]; 5.08 µM in assay [6]. Also, the GI50 was 5.18 µM in assay [7], 5.12 µM in assay [8], 4.56 µM in assay [9] and 9.31 µM in assay [10]. Moreover, the TGI was over 100 µM in [1]; over 100 µM in assay [2]; over 100 µM in assay [3]; over 100 µM in assay [4]; over 58.1 µM in assay [5]; over 100 µM in assay [6]. The TGI in assay [7], in assay [8], in assay [9] and in assay [10] was over 100 µM throughout.
Consider `O=c1c2c([nH]c3nccn13)CCC2`, for which the TGI in assay [1], in assay [2], in assay [3], in [4], in [5] and in [6] was over 10 µM each time. The TGI in assay [7], in [8], in [9] and in assay [10] was over 10 µM in each case.
On to `C[C@H]1[C@H](C)N1CC(O)Cn1ccnc1[N+](=O)[O-]` (some centres not stated), for which the TGI in assay [1], in assay [2], in assay [3], in assay [4], in [5] and in assay [6] was over 100 µM in each case. Also, the TGI in assay [7], in [8], in [9] and in assay [10] was over 100 µM in each case.
In the case of `COc1cc(-c2nc3ccccc3s2)ccc1OCCCCOc1cc2c(cc1OC)C(=O)N1CCC[C@H]1C=N2`, the GI50 in assay [1] is 1.39 µM; in assay [2] it was 1.99 µM; in [3], 0.372 µM; in assay [4], 0.471 µM; in [5] it was 0.102 µM; in assay [6], 1.47 µM. In addition, the GI50 in [7] is 0.726 µM; in assay [8] it was 0.697 µM; in [9], 0.785 µM; in assay [10], 0.9 µM. The TGI in assay [1] is 3.87 µM; in [2], 4.51 µM; in assay [3] it was 5.88 µM; in assay [4], 3.57 µM; in assay [5], 2.1 µM; in assay [6] it was 4.72 µM. For the same compound, the TGI in assay [7] amounted to 2.22 µM; in assay [8] it was 2.26 µM; in assay [9] it was 2.55 µM; in assay [10], 2.17 µM.
For `COc1ccc([C@H](CC(=O)O)N2CCN(CCCc3ccc4c(n3)NCCC4)C2=O)cn1`, the GI50 in assay [1] is 0.515 µM; in assay [2], over 28.7 µM; in assay [3], over 80.8 µM; in assay [4], 0.247 µM; in assay [5] it was over 100 µM; in assay [6] it was 0.892 µM. The GI50 in assay [7] is 0.715 µM; in assay [8], over 100 µM; in assay [9], over 100 µM; in assay [10] it was 0.346 µM. In addition, the TGI in assay [2] is over 100 µM; in [3], over 100 µM; in [4], 0.902 µM; in assay [5], over 100 µM; in assay [6], 4.07 µM; in assay [7] it was 4.23 µM. Moreover, the TGI in assay [8], in assay [9] and in [10] was over 100 µM throughout.
As to `COc1cc(/C=C/c2ccc(C)cc2)cc(OC)c1OC`, the TGI in assay [1] was 30.1 µM; in assay [2], 17.7 µM; in assay [3], over 100 µM; in [4] it was 45.3 µM; in assay [5], 25.4 µM; in assay [6], 9.16 µM. For the same compound, the TGI was found to be 13.5 µM in assay [7], 13.2 µM in assay [8], 11.4 µM in assay [9] and 36.6 µM in [10].
Turning to `COc1ccc(-c2c(C)c(C(=O)O)nc(-c3ccc4c(O)c(OC)c5c(c4n3)=NC(C)(C)N=5)c2N)c(O)c1OC`, the TGI in assay [1] is 41.7 µM; in assay [2], 59.8 µM; in assay [3] it was 47.9 µM; in [4] it was over 100 µM; in assay [5] it was 24.4 µM; in assay [6], 6.95 µM. The TGI was 25.7 µM in [7], 77.1 µM in assay [8], over 100 µM in assay [9] and 31.6 µM in assay [10].
`CCCn1c2c(c3c(O)cccc31)C(=O)c1ccccc1-2`: the GI50 is 21.9 µM in assay [1]; 10.4 µM in assay [2]; over 100 µM in assay [3]; 58 µM in assay [4]; over 100 µM in assay [5]; 11.5 µM in [6]. The GI50 in assay [7] was 31.6 µM; in assay [8], over 100 µM; in [9], 12.6 µM; in [10], 14.6 µM. The TGI in assay [1] is 98.5 µM; in [2], 39.1 µM; in [3] it was over 100 µM; in assay [4], over 100 µM; in assay [5], over 100 µM; in assay [6], over 100 µM. Further, the TGI in assay [7] is over 100 µM; in assay [8], over 100 µM; in assay [9], 36 µM; in [10] it was 52.2 µM.
With `CCCCCCCCCCCC1=NC(C)(C)CN1C(C)(C)CO`, the GI50 is 4.31 µM in assay [1]; 1.83 µM in [2]; 1.84 µM in [3]; 2.48 µM in assay [4]; 2.94 µM in [5]; 2.11 µM in assay [6]. Further, the GI50 in assay [7] was 1.91 µM; in [8] it was 1.59 µM; in assay [9], 3.11 µM; in assay [10], 1.93 µM. Further, the TGI is 17.5 µM in [1]; 3.41 µM in assay [2]; 4.38 µM in [3]; 5.64 µM in [4]; 12.4 µM in assay [5]; 4.67 µM in assay [6]. Further, the TGI in assay [7] came to 3.79 µM; in [8], 3 µM; in assay [9] it was 12.8 µM; in assay [10], 3.89 µM.
Consider `C/C(=C\c1ccn(-c2ccccc2N)n1)[C@@H]1C[C@@H]2O[C@]2(C)CCC[C@H](C)[C@H](O)[C@@H](C)C(=O)C(C)(C)[C@@H](O)CC(=O)O1`, for which the GI50 was 0.145 µM in assay [1]; 1.07 µM in [2]; 0.0268 µM in [3]; 0.0168 µM in assay [4]; 0.0343 µM in assay [5]; 0.0663 µM in assay [6]. For the same compound, the GI50 in [7] was 0.0331 µM; in assay [8] it was 0.0212 µM; in assay [9] it was 0.0371 µM; in [10], 0.0938 µM. For the same compound, the TGI in [1], in assay [2], in [3], in assay [4], in [5] and in assay [6] was over 50 µM each time. Further, the TGI in assay [7] was over 50 µM; in assay [8] it was 0.641 µM; in assay [9], over 50 µM; in assay [10] it was over 42.6 µM.
For the compound `Cc1ccc(/C=C(\C#N)c2cc3ccccc3n2C)cc1`, the GI50 in assay [1] was 0.614 µM; in [2], over 100 µM; in assay [3], 0.153 µM; in assay [4] it was 0.305 µM; in [5], 0.355 µM; in assay [6], 0.541 µM. The GI50 in [7] was 0.542 µM; in assay [8], 0.41 µM; in assay [9] it was 0.403 µM; in assay [10] it was 0.709 µM. Also, the TGI in [1], in assay [2], in [3], in [4], in assay [5] and in assay [6] was over 100 µM throughout. Moreover, the TGI in assay [7] is over 100 µM; in assay [8], over 43.5 µM; in assay [9], over 100 µM; in assay [10], over 100 µM.
As for `COc1ccccc1/C=C1\COc2ccc(-c3ccccc3)cc2C1=O`, the GI50 was 3.17 µM in [1]; 3.61 µM in assay [2]; 4.54 µM in assay [3]; 2.4 µM in assay [4]; 2.08 µM in assay [5]; 4.38 µM in assay [6]. The GI50 in [7] is 2.97 µM; in [8], 3.57 µM; in assay [9], 4.28 µM; in [10] it was 4.31 µM. For the same compound, the TGI in assay [1] is over 100 µM; in [2], 13.3 µM; in assay [3], over 100 µM; in [5], 15.2 µM; in assay [6], 59.3 µM; in assay [7] it was 10.7 µM. Moreover, the TGI in assay [8] is 13 µM; in assay [9], over 100 µM; in assay [10], over 100 µM.
